pKi: −log10 of the molar value.
target: T1, Botulinum neurotoxin type A (Clostridium botulinum, UniProt P0DPI0); assay: Inhibition of Clostridium botulinum BoNT/A light chain (1 to 429 amino acid) using Abz-Thr-dArg-Ile-Asp-Glu-Ala-Asn-Gln-Arg-Ala-Thr-Lys-Nle-Lys(Dnp)-NH2 as substrate after 10 mins by FRET assay
T1 sequence (P0DPI0 2-448 limits assumed): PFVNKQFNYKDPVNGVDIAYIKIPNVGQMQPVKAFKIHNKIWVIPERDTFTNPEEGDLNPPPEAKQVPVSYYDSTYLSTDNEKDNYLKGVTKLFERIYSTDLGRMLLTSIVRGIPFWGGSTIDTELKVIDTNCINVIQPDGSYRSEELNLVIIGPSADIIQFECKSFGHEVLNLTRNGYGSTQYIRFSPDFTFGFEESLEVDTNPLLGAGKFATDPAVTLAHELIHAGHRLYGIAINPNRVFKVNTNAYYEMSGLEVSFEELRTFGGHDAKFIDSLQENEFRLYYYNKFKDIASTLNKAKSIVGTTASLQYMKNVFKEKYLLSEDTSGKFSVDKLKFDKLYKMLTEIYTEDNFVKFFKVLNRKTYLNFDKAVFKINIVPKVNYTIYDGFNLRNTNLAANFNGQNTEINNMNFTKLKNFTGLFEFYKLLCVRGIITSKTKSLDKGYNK

`O=C(NC(Cc1c[nH]c2ccccc12)C(=O)NO)c1ccco1` (stereo not given) and `Cc1ccc(C(=O)NC(Cc2c[nH]c3ccccc23)C(=O)NO)o1` (stereo not given) cannot be ordered by pKi: under 3.52 for the first, under 3.52 for the second.

`NC(=O)C1CC(C(=O)NO)=NN1c1ccccc1` (stereo not given) and `O=C(CC1C(=O)NCCN1C/C=C/c1ccccc1)NO` (stereo not given) cannot be ordered by pKi: under 3.52 for the first, under 3.52 for the second.

`Cc1nnc(SCC(=O)NO)n1Cc1ccccc1` and `Cc1nnc(SCc2ccccc2C(=O)NO)n1C` cannot be ordered by pKi: under 3.52 for the first, under 3.52 for the second.

`O=C(NC(Cc1ccccc1)C(=O)NO)C1CCCCC1` (stereo not given) and `O=C(COc1ccccc1)NC(Cc1ccccc1)C(=O)NO` (stereo not given) cannot be ordered by pKi: under 3.52 for the first, under 3.52 for the second.

`COc1ccc(CN2CCNC(=O)C2CC(=O)NO)cc1OC` (stereo not given) and `O=C(CC1Sc2ccccc2NC1=O)NO` (stereo not given) cannot be ordered by pKi: under 3.52 for the first, under 3.52 for the second.

Going from `O=C(NC(Cc1c[nH]c2ccccc12)C(=O)NO)c1ccc(Cl)s1` (stereo not given) to `O=C(NC(Cc1c[nH]c2ccccc12)C(=O)NO)c1ccc(F)cc1` (stereo not given), the pKi rises from under 3.52 to 3.67.

First: O=C(CN1C(=O)c2ccccc2C1c1c[nH]c2ccccc12)NO (stereo not given)
Second: O=C(CCN1C(=O)c2ccccc2C1c1c[nH]c2ccccc12)NO (stereo not given)
The pKi of the first is lower: under 3.52 for the first, 3.71 for the second.

First: O=C(NO)c1ccccc1-c1ccccc1C(=O)Nc1ccccn1
Second: O=C(CCC(=O)N(c1ccccc1)c1ccccc1)NO
The pKi of the first is higher: 4.68 for the first, under 3.52 for the second. The first binds more tightly here.

`O=C(CNC(=O)c1ccc2noc(-c3ccccc3)c2c1)NO` and `O=C(Cn1nc(Cc2ccccc2)c2ccccc2c1=O)NO` are within 0.2 log units of each other in pKi: 4.11 for the first, 4.03 for the second.

Compared with `Cc1ccc(CN(CC(=O)NO)S(=O)(=O)c2ccccc2)cc1`, `Cc1ccc(OCC(=O)NC(Cc2ccccc2)C(=O)NO)cc1` (stereo not given) is lower in pKi: 3.85 for the first, under 3.52 for the second. The first binds more tightly here.

First: CCC(C)C(C(=O)NO)N1C(=O)c2ccccc2C1=O (stereo not given)
Second: COc1ccccc1-c1cc(C(=O)NO)[nH]n1
The pKi of the first is higher: 3.73 for the first, under 3.52 for the second.

`CCCCOc1ccccc1-c1cc(C(=O)NO)[nH]n1` and `Cc1cc(C(=O)NC(Cc2c[nH]c3ccccc23)C(=O)NO)c(C)o1` (stereo not given) cannot be ordered by pKi: under 3.52 for the first, under 3.52 for the second.

`O=C(NO)c1cccc(-c2ccc(CNCC3CCCO3)o2)c1` (stereo not given) and `O=C(Cc1nc(-c2cccnc2)sc1-c1ccc(Cl)cc1)NO` cannot be ordered by pKi: under 3.52 for the first, under 3.52 for the second.

First: Cc1nc(C)c(CCC(=O)NO)c(=O)[nH]1
Second: Cc1[nH]c2ccccc2c1C1c2ccccc2C(=O)N1CC(=O)NO (stereo not given)
The pKi of the first is lower: under 3.52 for the first, 3.85 for the second. The second binds more tightly here.

`O=C(CC1SC(N2CCCC2)=NC1=O)NO` (stereo not given) showed a pKi of under 3.52.

target: T1, Botulinum neurotoxin type A

`O=C(CN(Cc1ccccc1)Cc1ccccc1)NO` gave a pKi of 4.05.
